Here are results for one cell line from the supplement of paper PMC10307832.

Common to all, as to assay: relative viability (nuclei count vs DMSO), 5 days (fraction); higher = more cells survive
Compound in the experiment “Vemurafenib + Luminespib”: CCCS(=O)(=O)Nc1ccc(F)c(C(=O)c2c[nH]c3ncc(-c4ccc(Cl)cc4)cc23)c1F [Vemurafenib] + CCNC(=O)c1noc(-c2cc(C(C)C)c(O)cc2O)c1-c1ccc(CN2CCOCC2)cc1 [Luminespib] (partner 0.01 µM)
The method in brief:
(§1)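 Each reported value is a median over duplicate plates. It expresses relative viability: treated-well nuclei count divided by vehicle-well nuclei count. Lung cancer cell lines in 1536-well plates were dosed by pin tool a day after seeding, alone with one drug or with a fixed anchor-drug dose plus five library-drug doses (not always all listed) in √10 steps, and nuclei were counted after 5 days.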

Compound in the experiment “Vemurafenib + Crizotinib”: CCCS(=O)(=O)Nc1ccc(F)c(C(=O)c2c[nH]c3ncc(-c4ccc(Cl)cc4)cc23)c1F [Vemurafenib] + C[C@@H](Oc1cc(-c2cnn(C3CCNCC3)c2)cnc1N)c1c(Cl)ccc(F)c1Cl [Crizotinib] (partner 1 µM)
In a few lines:
as §1

Compound in the next experiment: COc1cccc2cc(-c3nc([C@H]4CC[C@H](C(=O)O)CC4)n4ncnc(N)c34)[nH]c12 [OSI-027]
The method in brief:
(§2)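 Lung cancer cell lines were seeded into 1536-well plates, kept overnight at 37 °C and pinned with five library-drug doses (not always all listed) spaced by √10. After 5 days, nuclei were Hoechst-stained, imaged at 4× and counted with MetaXpress. Viability is treated-well nuclei over vehicle-well nuclei, taken as a median across plates. Plates needed control CV below 25% and at least one doubling.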

Compound in another experiment: Cc1nc(NC(=O)N2CCC[C@H]2C(N)=O)sc1-c1ccnc(C(C)(C)C(F)(F)F)c1 [Alpelisib]
The method in brief: as §2

As to UMC-11, the relative viability in the experiment with Vemurafenib + Luminespib (first compound 0.03162 µM) was 0.916; in the experiment with Vemurafenib + Luminespib (first compound 0.1 µM), 0.991; with Vemurafenib + Luminespib (first compound 0.3162 µM) it was 0.984; with Vemurafenib + Luminespib (first compound 1 µM), 0.941; with Vemurafenib + Crizotinib (first compound 0.03162 µM), 0.638; with Vemurafenib + Crizotinib (first compound 0.1 µM), 0.616. The relative viability with Vemurafenib + Crizotinib (first compound 0.3162 µM) worked out at 0.629; with Vemurafenib + Crizotinib (first compound 1 µM), 0.633; with OSI-027 (0.01 µM), 0.913; with OSI-027 (0.03162 µM), 0.916; with OSI-027 (0.1 µM) it was 0.808; with OSI-027 (0.3162 µM), 0.704. Further, the relative viability was determined as 0.49 with OSI-027 (0.5 µM, anchor plate); 0.561 in the experiment with OSI-027 (1 µM); 0.937 with Alpelisib (0.04 µM); 0.954 with Alpelisib (0.1265 µM); 1.01 with Alpelisib (0.4 µM); 0.956 with Alpelisib (1.265 µM). The relative viability with Alpelisib (2 µM, anchor plate) was determined as 1; with Alpelisib (4 µM) it was 0.826.
